Measured values from US6716829B2, “Aldosterone antagonist and cyclooxygenase-2 inhibitor combination therapy to prevent or treat inflammation-related cardiovascular disorders” (Pharmacia Corporation, priority 2000, dated 2004).

Key:
[1] = test system: aldosterone-infused, saline-drinking, uni-nephrectomized rats; assay: Assay B: heart histology (hematoxylin&eosin), vascular inflammatory lesions and myocardial injury; type: in vivo, Male Sprague Dawley rats; settings: eplerenone 100 mpk p.o., 0.6% KCl group, 4 weeks
Experimental: Assay B: In Vivo Aldosterone Infusion Model Male Sprague Dawley rats (n=39; BW=250 g) […] Uni-nephrectomy performed during implantation of mini-pumps 2. Aldosterone ([…], sc via alzet minipump) 2. […] 1. […] Sacrifice after 4 weeks. Hearts were harvested and divided by half through a transverse section at the mid-ventricles: The upper half was stored into formalin. The bottom part was snap-frozen in liquid nitrogen for biochemical analysis. Hearts were stained with hematoxylin&eosin and the collagen specific dye picro-sirius red and were analyzed for determination of interstitial collagen volume fraction and morphologic abnormalities (i.e. necrosis, vascular injury).

osteopontin = assay: Assay B: osteopontin immunohistochemistry in the heart; type: in vivo, Male Sprague Dawley rats; settings: aldosterone-infused rats; eplerenone 100 mpk; increased dietary potassium group
Experimental: Assay B: In Vivo Aldosterone Infusion Model Male Sprague Dawley rats (n=39; BW=250 g) 2. Aldosterone (0.75 mg/hr, sc via alzet minipump) 2. […] Determination of osteopontin and COX-2 was performed by quantitative RT-PCR (Taqman). Osteopontin was also identified in the heart by immunohistochemistry.

[2] = test system: angiotensin II infused rats; assay: Assay A, angiotensin II infusion model: systolic blood pressure by tail-cuff; type: in vivo, Male Wistar rats; settings: angiotensin II 25 ng/min sc, 1% NaCl; eplerenone 100 mpk; aldosterone in adrenalectomized rats; 4 weeks
Experimental: Human cardiovascular disorders are complex conditions, often initiated by vascular hypertension or a myocardial infarction (MI). In order to determine the probable effectiveness of a therapy for cardiovascular disorders, it is important to determine the potency of components in several assays. Accordingly, in Assay “A”, the efficacy of the aldosterone antagonist epeplerenone (epoxymexrenone) was determined in a hypertensive rat model with vascular inflammation, using angiotensin II infusion. In Assay “B” a study is described evaluating the efficacy of the aldosterone antagonist epeplerenone (epoxymexrenone) in a rat model using aldosterone infusion to produce hypertension with vascular inflammation. In Assay “C” a further study is described evaluating the efficacy of the aldosterone antagonist epeplerenone (epoxymexrenone) in a rat model using aldosterone infusion to produce hypertension with vascular inflammation.
Assay A: In Vivo Angiotensin II Infusion Model
Male Wistar rats (n=50, 10/group; BW=200 g)
SBP measured by tail-cuff every week

[3] = test system: coronary arteries of angiotensin II/salt-treated animals; assay: Assay A: heart histology (hematoxylin&eosin), vascular inflammatory lesions and myocardial injury; type: in vivo, Male Wistar rats; settings: of ten animals per group; angiotensin II/salt; eplerenone 100 mpk; 4 weeks
Excerpt: Sacrifice by exanguination after 4 weeks. Blood was be collected in dry tubes for determination of serum electrolytes and in EDTA-containing tubes for measurement of aldosterone and corticosterone levels Hearts were stained with hematoxylin&eosin and have been analyzed for determination of morphologic abnormalities (i.e. necrosis, vascular injury).

Compound	Vascular inflammatory changes / myocardial injury [1]	Osteopontin expression in the heart (immunostaining) (osteopontin)	Systolic Blood Pressure [2]	Animals with vascular inflammatory changes (lesions) in the coronary arteries [3]
[Cl-].[K+] [dietary potassium]	did not have significant effects	did not reduce osteopontin expression	–	–
angiotensin II: infused 25 ng/min sc via alzet minipump to produce hypertensive rat model with vascular inflammation (DRVYIHPF; Angiotensin-2; UniProt P01015 25-32, looked up)	–	–	increased	Seven out of the ten
